Tests used:
Type in all cases: binding
[1] = system: anti-PGE2 antibody; experiment: Two-plex single molecule array assay for PGE2 and cortisol: PGE2; conditions: simultaneous detection of cortisol and PGE2
Protocol: (§1) Carboxylated 2.7 μm paramagnetic beads (˜4×10^8), non-encoded for single-plex assays and dye-encoded (488 nm and 647 nm) for multiplex assays, were washed three times with 600 μL of bead wash buffer (0.1% TWEEN® 20 in 1× PBS, pH 7.4) and twice with 400 μL of MES buffer (50 mM MES, pH 6.2). 1 mg/mL EDC in MES buffer was freshly prepared and 200 μL was added to the beads and mixed well. The beads were activated on a shaker for 30 min. After activation, the beads were washed once with 200 μL of MES buffer. 200 μL of 10 mg/mL BSA or BSA-cortisol conjugate in MES buffer were added to the activated beads. The beads were incubated at room temperature with shaking for 2 h, and then washed three times with bead wash buffer. […] The beads were counted using a Beckman-Coulter MULTISIZER™.
(§2) A two-step assay configuration was chosen when hapten-BSA-coated beads were used. […] Images of the arrays were analyzed and AEB (average enzyme per bead) values were calculated by the software in the SIMOA HD-1 ANALYZER™.
(§3) Standard curves were obtained by plotting the signal responses (AEB and OD) against the logarithm of analyte concentrations using Origin software (Origin 9.5). […] The limit of detection (LOD) was calculated as three standard deviations (SDs) above the background. […]

[2] = system: anti-PGE2 antibody; experiment: Single-plex competitive single molecule array assay for PGE2 (BSA-PGE2 beads)
Protocol: as §1, §2, §3

[3] = Competitive single molecule array assay, BSA-cortisol MBs (two-step, single-plex); conditions: single-plex comparison to IL-6/cortisol multiplex
Protocol: A two-step assay configuration was chosen when hapten-BSA-coated beads were used. Specifically, hapten-BSA-coated capture beads were diluted in Bead Diluent (Quanterix) to a concentration of 5,000 beads/μL. Biotinylated detector antibodies were diluted in Detector Diluent (Quanterix) to the desired concentration (1 pM for anti-cortisol antibodies, and 1 nM for anti-PGE2 antibodies). SβG concentrate was diluted to 200 pM in SβG Diluent (Quanterix). Cortisol and PGE2 standards were serially diluted to desired concentrations in Sample Diluent. The reagents including beads, detector, and SβG were placed in plastic bottles (Quanterix). The samples were loaded onto a 96-well plate (Quanterix). […] Images of the arrays were analyzed and AEB (average enzyme per bead) values were calculated by the software in the SIMOA HD-1 ANALYZER™.
as §3
We applied single molecule array assay to small molecule detection by developing a bead-based competitive protocol. […] The beads labeled with detection probes were then labeled with an enzyme, SβG, via biotin-streptavidin interaction and detected by enzymatic readout on the SIMOA™ platform. […]

[4] = system: anti-cortisol antibody (XM210); experiment: Multiplex single molecule array assay for IL-6 and cortisol: cortisol (competitive); conditions: simultaneous detection of IL-6 and cortisol
Protocol: A two-step assay configuration was used for simultaneous detection of IL-6 and cortisol. BSA-cortisol coated beads were mixed with anti-IL6 capture beads (1:1 in number). The mixed beads were diluted to a concentration of 10,000 beads/μL. A mixture of detection antibodies, 10 pM for anti-cortisol antibody (XM210) and 1 nM for anti-IL6 detector, was prepared in Detector Diluent. A mixture of cortisol and IL-6 standards was serially diluted to desired concentrations. All the other conditions were the same as the single-plex assay.
Standard curves were obtained by plotting the signal responses (AEB and OD) against the logarithm of analyte concentrations using Origin software (Origin 9.5). The 4-parameter logistic equation y=A2+(A1−A2)/[1+(x/x0)^P] was used for curve fitting in the whole concentration range, where A1 is the maximum signal without analyte, A2 is the minimum signal at infinite concentration, p is the curve slope at the inflection point, and x0 is the IC50 (analyte concentration causing a 50% inhibition of the maximum response). The lower the IC50 is, the higher the sensitivity is. The limit of detection (LOD) was calculated as three standard deviations (SDs) above the background. All measurements were performed in triplicate. […]

[5] = Conventional competitive ELISA for cortisol (BSA-cortisol coated plate); conditions: cortisol concentration causing 50% inhibition of maximum response
Protocol: The high-binding 96-well microtiter plate was coated with BSA-cortisol conjugate in PBS (1 μg/mL, 100 μL/well) overnight at 4° C. After washing, the plate was blocked with 1% BSA in PBS (200 μL/well) for 1 h at room temperature and subsequently washed. Next, biotinylated anti-cortisol (10 nM, 10 μL/well) in PBS and serial concentrations of cortisol standard (0, 0.001, 0.01, 0.1, 1, 10, 100 and 1,000 ng/mL,100 μL/well) prepared in Sample Diluent were added to the wells. The immunoreaction was allowed to proceed for 1 h. After washing, the plate was incubated with streptavidin-horseradish peroxidase (HRP((2 nM, 100 μL/well) for 30 min. After another washing, 3,3′,5,5′-tetramethylbenzidine (TMB) substrate (100 μL/well) was added and the plate was incubated for 15 min. Next, 50 μL of 1 mol/L hydrochloric acid was added to each well to stop the enzymatic reaction. Finally, the optical density (OD) was recorded at 450 nm on a Tecan Infinite M200 Plate Reader.
as §3

[6] = system: anti-cortisol antibody; experiment: Two-plex single molecule array assay for PGE2 and cortisol: cortisol; conditions: simultaneous detection of cortisol and PGE2
Protocol: as §1, §2, §3

Row | Compound | IC50 for PGE2, two-plex assay [1] | IC50 for PGE2, single-plex assay [2] | IC50 for cortisol, single-plex assay [3] | IC50 for cortisol, multiplex assay with IL-6 [4] | ELISA IC50 [5] | IC50 for cortisol, two-plex assay [6]
1 | CCCCC[C@H](O)/C=C/[C@H]1[C@H](O)CC(=O)[C@@H]1C/C=C\CCCC(=O)O [PGE2, Prostaglandin E2] | 0.7 ng/mL | 0.37 ng/mL |  |  |  | 
2 | C[C@]12CCC(=O)C=C1CC[C@@H]1[C@@H]2[C@@H](O)C[C@@]2(C)[C@H]1CC[C@]2(O)C(=O)CO [cortisol] |  |  | 0.54 ng/mL | 0.57 ng/mL | 170.23 ng/mL | 0.46 ng/mL
